From patent publication US7060273B2, “Methods for inhibiting HIV-1 infection” (priority 2001, dated 2006)

Tests used:
[1] = tested on: HIV; settings: human, in vivo; cited from earlier work
[2] = tested on: fusion between HeLa-EnvJR-FL and PM1 cells
Description: HIV-1 envelope-mediated fusion between HeLa-EnvJR-FL and PM1 cells was detected using a Resonance Energy Transfer (RET) assay.
HIV-1 inhibition data were analyzed according to the Combination Index method of Chou and Talay. The data are modeled according to the median-effect principle, which can be written f=1/[1+(K/c)^m] (1) where f is the fraction affected/inhibited, c is concentration, K is the concentration of agent required to produce the median effect, and m is an empirical coefficient describing the shape of the dose-response curve. Equation (1) is a generalized form of the equations describing Michaelis-Menton enzyme kinetics, Langmuir adsorption isotherms, and Henderson-Hasselbalch ionization equilibria, for which m=1 in all cases. In the present case, K is equal to the IC50 value. K and m are determined by curve-fitting the dose-response curves.
After the best-fit parameters for K and m are obtained for the experimental agents and their combination, Equation (1) is rearranged to allow for calculation of c for a given f.
All concentrations are those required to achieve a given degree of inhibition. Equation (2) is used when the molecules are mutually nonexclusive, i.e., have different sites of action. Since this is the likely scenario for inhibitors of HIV-1 attachment and gp41 fusion intermediates, Equation (2) was used for all Combination Index calculations. […] CI<1 indicates synergy, CI=1 indicates purely additive effects, and CI>1 indicates antagonism. In general, CI values are most relevant at the higher levels of inhibition that are required to achieve a measurable clinical benefit.

enfuvirtide
reduction of plasma HIV RNA levels [1]: ≤ 2 logs
concentration of the agent contained in the combination giving 95% inhibition ([2]; 25:1 CD4-IgG2:T-20 mass ratio): 0.044 µg/mL
dose reduction by the combination ([2]; 95% inhibition, 25:1 mass ratio): 5 fold
K (equal to IC50), best-fit median effect parameter ([2]; FIG. 8, combination 25:1 CD4-IgG2:T-20): 0.017 µg/mL
concentration required for inhibition of viral entry by 95% ([2]; agent used alone, or total of 25:1 mass ratio combination): 0.21 µg/mL
